Reference: patent publication US10231956B2, “3-(1H-pyrrolo[3,2-C]pyridin-2-YL)-1 H-pyrazolo[4,3-B]pyridines and therapeutic uses thereof” (Samumed, LLC, priority 2015, dated 2019)

Tests used:
Format in all cases: cell-based
SW480 colon cancer cells = assay: Cell viability assay (CellTiter-Blue) in SW480 colon cancer cells; settings: Homo sapiens; for EC50: 96 h, four days, CellTiter-Blue; for inhibition at 10 µM: given for EC50 >10 μM, read-out: percent inhibition at 10 μM
Outline: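 Four-day viability readout in SW480 cells: compound at 0.0045–10 μM (1:3 series), DMSO controls in eight replicates, CellTiter-Blue fluorescence after ~3 h. Values are regression-derived EC50s, or percent inhibition at 10 μM when EC50 exceeds 10 μM.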

[1] = test system: Wnt activity (Sp5-Luc reporter, SW480 colon carcinoma cells); assay: Sp5-Luc reporter gene screening assay for Wnt activity in SW480 cells; settings: Homo sapiens; for EC50: luminescence, overnight incubation; for inhibition at 10 µM: given for EC50 >10 μM, read-out: percent inhibition at 10 μM
Outline: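 Wnt-driven firefly luciferase in SW480 colon carcinoma cells reports pathway activity after overnight compound exposure (10 μM top concentration, 3-fold steps). Signal is normalized to DMSO controls.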

[2] = test system: primary human mesenchymal stem cells (hMSCs); assay: Induction of chondrogenesis in primary human mesenchymal stem cells (nodule count); settings: 144 h, 6 days; for Emax: TGF-β3 10 ng/mL as positive control, read-out: Max. Activity as % TGF-β3 activity; for EC50: concentration required to induce 50% levels of chondrogenesis vs TGF-β3, read-out: Conc (nM) of 50% TGF-β3 activity
Experimental: Representative compounds were screened using primary human mesenchymal stem cells (hMSCs) to determine their ability to induce chondrogenesis (process by which cartilage is developed).
Human Mesenchymal Stem Cell Culture: Primary human mesenchymal stem cells (hMSCs) were purchased from Lonza (Walkersville, Md.) and expanded in Mesenchymal Stem Cell Growth Media (Lonza). Cells between passage 3 and 6 were used for the experiments.
Compound Screening: Each compound was dissolved in DMSO as a 10 mM stock and used to prepare compound source plates. Serial dilution (1:3, 6-point dose-response curves from 2700 nM to 10 nM) and compound transfer was performed using the ECHO 550 (Labcyte, Sunnyvale, Calif.) into 96-well clear bottom assay plates (Greiner Bio-One) with appropriate DMSO backfill for a final DMSO concentration of 0.03%. hMSCs were plated at 20,000 cells/well in 250 μL/well Incomplete Chondrogenic Induction Medium (Lonza; DMEM, dexamethasone, ascorbate, insulin-transferrin-selenium [ITS supplement], gentamycin-amphotericin [GA-1000], sodium pyruvate, proline and L-glutamine). TGF-β3 (10 ng/mL) was used as a positive control for differentiation while negative control wells were treated with 75 nL DMSO for normalization and calculating EC50 values. Cells were incubated at 37° C. and 5% CO2 for 6 days. To image chondrogenic nodules, the cells were fixed using 4% formaldehyde (Electron Microscopy Sciences), and stained with 2 μg/mL Rhodamine B (Sigma-Aldrich) and 20 μM Nile Red (Sigma-Aldrich) [Johnson K., et. al, A Stem Cell-Based Approach to Cartilage Repair, Science, (2012), 336(6082), 717-721]. The nodules imaged (4 images per well at 4× magnification) by excitation at 531 nm and emission at 625 nm and quantified using the CellInsight CX5 (Thermo Scientific). Number of nodules in each well was normalized to the average of 3 DMSO treated wells on the same plate using Excel (Microsoft Inc.). The normalized averages (fold change over DMSO) of 3 replicate wells for each compound concentration were calculated. Due to solubility limitations of some of the compounds, curve fitting was incomplete leading to inaccurate EC50 determinations.
Using TGF-β3 as a positive control, the concentration of representative compounds required to induce 50% levels of chondrogenesis is reported. In addition, the maximum activity of each compound and the respective dose that each compound reached maximum chondrogenesis activity is reported.

SMILES | EC50 (SW480 colon cancer cells) [nM] | EC50 [1] [nM] | Emax [2] [%] | EC50 [2] [nM] | inhibition at 10 µM (SW480 colon cancer cells) [%] | inhibition at 10 µM [1] [%]
CCNCc1cncc(-c2ccc3[nH]nc(-c4cc5cnccc5[nH]4)c3n2)c1 [Compound 258, N-((5-(3-(1H-Pyrrolo[3,2-c]pyridin-2-yl)-1H-pyrazolo[4,3-b]pyridin-5-yl)pyridin-3-yl)methyl)ethanamine] | 1660 | 3470 | 99 | 2700 |  | 
CS(=O)(=O)NCc1cc(F)cc(-c2nccc3[nH]c(-c4n[nH]c5ccc(-c6ccccn6)nc45)cc23)c1 [Compound 504, N-(3-Fluoro-5-(2-(5-(pyridin-2-yl)-1H-pyrazolo[4,3-b]pyridin-3-yl)-1H-pyrrolo[3,2-c]pyridin-4-yl)benzyl)methanesulfonamide] | > 10000 | 2140 | 24 |  | 44.7 | 
O=C(CC1CCNCC1)Nc1cncc(-c2ccc3[nH]nc(-c4cc5c(N6CCCCC6)nccc5[nH]4)c3n2)c1 [Compound 609, N-(5-(3-(4-(Piperidin-1-yl)-1H-pyrrolo[3,2-c]pyridin-2-yl)-1H-pyrazolo[4,3-b]pyridin-5-yl)pyridin-3-yl)-2-(piperidin-4-yl)acetamide] | > 10000 | > 10000 | 22 |  | 9.7 | 13.3
CC(C)CC(=O)Nc1cncc(-c2ccc3[nH]nc(-c4cc5c(-c6ccccc6F)nccc5[nH]4)c3n2)c1 [Compound 58, N-(5-(3-(4-(2-Fluorophenyl)-1H-pyrrolo[3,2-c]pyridin-2-yl)-1H-pyrazolo [4,3-b]pyridin-5-yl)pyridin-3-yl)-3-methylbutanamide] | 370 | 649 | 36 |  |  | 
Fc1ccccc1-c1nccc2[nH]c(-c3n[nH]c4ccc(-c5cncc(CNCc6ccccc6)c5)nc34)cc12 [Compound 80, N-Benzyl-1-(5-(3-(4-(2-fluorophenyl)-1H-pyrrolo[3,2-c]pyridin-2-yl)-1H-pyrazolo[4,3-b]pyridin-5-yl)pyridin-3-yl)methanamine] | 2140 | 3790 | 110 | 10 |  | 
CN1CCN(c2nccc3[nH]c(-c4n[nH]c5ccc(-c6cncnc6)nc45)cc23)CC1 [Compound 251, 3-(4-(4-Methylpiperazin-1l-yl)-1H-pyrrolo[3,2-c]pyridin-2-yl)-5-(pyrimidin-5-yl)-1H-pyrazolo[4,3-b]pyridine] | 1130 | 3070 | 56 | 100 |  | 
c1ccc(-c2ccc3[nH]nc(-c4cc5c(N6CCCCC6)nccc5[nH]4)c3n2)nc1 [Compound 196, 3-(4-(Piperidin-1-yl)-1H-pyrrolo[3,2-c]pyridin-2-yl)-5-(pyridin-2-yl)-1H-pyrazolo[4,3-b]pyridine] | 2830 | 3380 | 102 | 100 |  | 
FC1(F)CCN(Cc2cncc(-c3ccc4[nH]nc(-c5cc6cnccc6[nH]5)c4n3)c2)C1 [Compound 278, 5-(5-((3,3-Difluoropyrrolidin-1-yl)methyl)pyridin-3-yl)-3-(1H-pyrrolo[3,2-c]pyridin-2-yl)-1H-pyrazolo[4,3-b]pyridine] | 88 | 52 | 134 | 300 |  | 
CN(C)Cc1cncc(-c2ccc3[nH]nc(-c4cc5c(N6CCCCC6)nccc5[nH]4)c3n2)c1 [Compound 181, N,N-Dimethyl-1-(5-(3-(4-(piperidin-1l-yl)-1H-pyrrolo[3,2-c]pyridin-2-yl)-1H-pyrazolo[4,3-b]pyridin-5-yl)pyridin-3-yl)methanamine] | 2700 | 4160 | 23 |  |  | 
CS(=O)(=O)NCc1cc(F)cc(-c2nccc3[nH]c(-c4n[nH]c5ccc(-c6cncc(NC(=O)Cc7ccccc7)c6)nc45)cc23)c1 [Compound 486, N-(5-(3-(4-(3-Fluoro-5-(methylsulfonamidomethyl)phenyl)-1H-pyrrolo[3,2-c]pyridin-2-yl)-1H-pyrazolo[4,3-b]pyridin-5-yl)pyridin-3-yl)-2-phenylacetamide] | > 10000 | > 10000 | 110 | 10 | 8.8 | 19.3
